Reference: patent US12215354B2, “Differentiation of human embryonic stem cells into single hormonal insulin positive cells” (Janssen Biotech, Inc., priority 2011, dated 2025)

Tested on: human embryonic stem cell line H1
Assay: Real-time PCR gene expression, dose and stage of ascorbic acid (Example 12)
Assay type: cell-based
Procedure: Cells of the human embryonic stem cell line H1 at various passages (passage 40 to passage 52) were seeded as single cells at a density of 100,000 cells/cm^2 on MATRIGEL™ (1:30 dilution) coated dishes in mTesr™1 media and 10 μM of Y27632. Forty eight hours post seeding, cultures were differentiated into pancreatic endocrine lineage as follows: • a. Stage 1 (Definitive Endoderm (DE)−3 days): Prior to start of DE, the cultures were washed and incubated with incomplete PBS (no Mg or Ca) for 30 seconds followed by addition of the stage 1 media. Human embryonic stem cells cultured as single cells on MATRIGEL™-coated dishes were treated with MCDB-131 medium supplemented with 0.1% fatty acid-free BSA, 0.0012 g/ml sodium bicarbonate, 1× GLUTAMAX™, 5 mM D-Glucose, and 100 ng/ml GDF8 plus 1 μM MCX compound (GSK3B inhibitor) for one day. Cells were then treated with MCDB-131 medium supplemented with 0.1% fatty acid-free BSA, 0.0012 g/ml sodium bicarbonate, 1× GLUTAMAX™, 5 mM glucose, and 100 ng/ml GDF8 plus 100 nM MCX compound for day two, followed by an additional day in MCDB-131 medium supplemented with 0.1% fatty acid-free BSA, 0.0012 g/ml sodium bicarbonate, 1× GLUTAMAX™, 5 mM Glucose, and 100 ng/ml GDF8. • b. Stage 2 (Primitive gut tube−2 days): Stage 1 cells were treated with MCDB-131 medium supplemented with 0.1% fatty acid-free BSA, 0.0012 g/ml sodium bicarbonate, 1× GLUTAMAX™, 5 mM D-Glucose, with or without the addition of 0.25 mM ascorbic acid and 25 ng/ml FGF7 for two days. • c. Stage 3 (Foregut−2 days): Stage 2 cells were treated with MCDB131 medium supplemented with 1:200 dilution of ITS-X, 2.5 mM Glucose, 1× GLUTAMAX™, 0.0015 g/ml sodium bicarbonate, 2% fatty acid-free BSA, 10 ng/ml Activin A, 25 ng/ml FGF7, 0.25 μM SANT-1, +/−0.25 mM ascorbic acid, 1 μM RA, 200 nM TPB, 100 nM LDN-193189 for day 1, followed by treatment with MCDB131 medium supplemented with 1:200 dilution of ITS-X, 2.5 mM Glucose, 1× GLUTAMAX™, 0.0015 g/ml sodium bicarbonate, 2% fatty acid-free BSA, 10 ng/ml Activin A, 25 ng/ml FGF7, 0.25 μM SANT-1, +/−0.25 mM ascorbic acid, 1 μM RA, 200 nM TPB, 10 nM LDN-193189 for an additional day. • d. Stage 4 (Pancreatic foregut precursor-2 days): Stage 3 cells were treated with MCDB131 medium supplemented with 1:200 dilution of ITS-X, 2.5 mM Glucose, 1× GLUTAMAX™, 0.0015 g/ml sodium bicarbonate, 2% fatty acid-free BSA, 0.25 μM SANT-1, 50 nM RA, 200 nM TPB, 50 nM LDN-193189, with or without the addition of 0.25 mM to 1 mM ascorbic acid for two days. • e. […]

[1] = at stage 5, ascorbic acid added at stages 2-4

O=C1O[C@H]([C@@H](O)CO)C(O)=C1O [ascorbic acid]
benefit of 0.5-1 mM as compared to 0.25 mM ascorbic acid (at S4): no significant benefit
expression of insulin and Pax4 [1]: maintaining
expression of somatostatin, glucagon, and Pax6 [1]: significantly reduced
expression of glucagon and somatostatin (at stage S3-5, ascorbic acid added at stage 2): effective in lowering
